# According to patent US20030129189A1, “Tumor necrosis factor-gamma” (priority 1994, published 2003):
# Experiments:
# L929 = test: TNF-gamma activity on L929 cells (MTS cytotoxicity/proliferation, morphology); format: cell-based, mouse; design: key to Proliferation / Differentiation / Adhesion: The numbers of “+” indicate the relative level of activities.; ++: The numbers of “+” indicate the relative level of activities.; +++: The numbers of “+” indicate the relative level of activities.; “−” indicates no detected activity at the concentration range tested
# Experimental: The adherent target cells were prepared from confluent cultures by trypsinization in PBS, and non-adherent target cells were harvested from stationary cultures and washed once with medium. Target cells were suspended at 3×10^5 cells/ml in medium containing 10% FCS. 0.1 ml aliquots were dispensed into 96-well flat-bottomed microtiter plates containing 0.1 ml serially diluted test samples of cells (WEHI 164 and L929). Incubation was continued for 70 hours. TNF-alpha, TNF-beta and bacterially-produced TNF-gamma were added at a 0.5 μg/ml concentration. The cytotoxicity and proliferation activity was quantified using an MTS assay performed by the addition of 20 μl of MTS and phenazine methosulfate (PMS) solution to each well. After a three hour incubation, the OD at 492 nm was measured by an ELISA plate reader. The OD492 is proportional to the number of viable cells in the wells. The percent of cytotoxicity was calculated as follows: […]. The photographs were taken after 72 hours.
# In the graph of FIG. 7B, the assay was performed as described above, however, increasing amounts of TNF-alpha, TNF-beta and TNF-gamma were added to the cultures.
# NRK-54E = test: TNF-gamma activity on NRK-54E cells; format: cell-based; design: key: The numbers of “+” indicate the relative level of activities.; ++: The numbers of “+” indicate the relative level of activities.; +++: The numbers of “+” indicate the relative level of activities.; “−” indicates no detected activity at the concentration range tested; conditions: rat kidney epithelial-like
# THP-1 = test: TNF-gamma activity on THP-1 cells; format: cell-based; design: key: The numbers of “+” indicate the relative level of activities.; ++: The numbers of “+” indicate the relative level of activities.; +++: The numbers of “+” indicate the relative level of activities.; “−” indicates no detected activity at the concentration range tested; conditions: THP-1, human monocytic leukemia
# WEHI 164 cells = test: Measurement of apoptosis (nucleosome ELISA); format: cell-based, mouse; conditions: increasing amounts (FIG. 12)
# Experimental: In a first incubation step, anti-histone antibody was fixed adsorptively on the wall of a microtiter plate module. Subsequently, non-specific binding sites on the wall were saturated by treatment with incubation buffer (e.g., blocking solution). During the second incubation step, the nucleosomes contained in the WEHI 164 cell sample treated with the TNF-alpha, TNF-beta or bacterially-produced TNF-gamma were bound via their histone components to the immobilized anti-histone antibody. In the third incubation step, anti-DNA-peroxidase (POD) reacted with the DNA component of the nucleosomes. After removal of all unbound peroxidase conjugate by a washing step, the amount of peroxidase retained in the immunocomplex was determined spectrophotometrically using the substrate ABTS (2,2′-azino-di-[3-ethylbenzthiazoline sulfonate]). Anti-histone antibody reacted with the histones H1, H2A, H2B, H3, and H4 from the sample. Anti-DNA POD antibody bound to single- and double-stranded DNA. Therefore, the ELISA allowed the detection of mono- and oligonucleosomes and may be applied to measure apoptotic cell death. The level of cell death was measured by the amount of cytoplasmic histone-associated DNA fragments which was indicated by the ratio of the absorbances observed at 405 and 490 nm (A405/A490). […]
# [1] = tested on: NF-kappaB p65 DNA-binding in U-937 cells; test: NF-kappaB activation (EMSA); format: cell-based
# Description: Activation of cellular NF-kappaB is preceded by the phosphorylation, ubiquitination, and ultimate degradation of an endogenous NF-kappaB inhibitor molecule designated IkBa. Degradation of the inhibitor allows the p65 subunit of NF-kappaB to translocate to the nucleus where it can act as a transcriptional regulator. For this reason, a electrophoretic mobility shift analysis (EMSA) is an appropriate method for analyzing activation of cellular NF-kappaB by treatment of cultured cells with TNF-gamma.
# In these analyses cells (2×10^6 per ml) were treated with different concentrations (0.1-1.0 μg/ml) of bacterially-produced TNF-gamma at 37° C. for 12 hours. Nuclear extracts were then prepared from the cultured cells and EMSA was performed as is well-known in the art and essentially as described (Singh, S. and Aggarwal, B. B. J. Biol. Chem. 270:10631-10636 (1995)).
substance,measurement,setting,value
TNF-gamma: new member of the tumor necrosis factor family; the term refers to TNF-gamma-alpha and/or TNF-gamma-beta,morphology change (killed cells),"L929; L929, 0.5 μg/ml, photographs after 72 hours (FIG. 8)",induced a morphology change which appeared as dark round cells (indicating killed cells)
same,Adhesion,"L929; L929, mouse fibroblast",−−
same,Differentiation,"L929; L929, mouse fibroblast",−−
same,Proliferation,"L929; L929, mouse fibroblast",−
same,inhibition of L929 cell growth,"L929; MTS assay, increasing amounts added",but not of the fibroblast cell line L929
same,Adhesion,NRK-54E,−−
same,Differentiation,NRK-54E,−−
same,Proliferation,NRK-54E,−
same,Adhesion,THP-1,++
same,Differentiation,THP-1,++
same,Proliferation,THP-1,−
same,"apoptosis (cytoplasmic histone-associated DNA fragments, A405/A490)",WEHI 164 cells,increasingly high levels of apoptosis
same,concentration giving peak activation of DNA-binding by p65,[1]; 12 hours,1 µg/mL
same,lowest concentration giving an observable increase in p65 DNA-binding,[1]; 12 hours,0.2 µg/mL
same,time span of p65 DNA-binding activation over basal levels,[1]; after initiation of treatment,from 30 minutes to 18 hours
